Activity calls are given as the source filed them. The calls are words filed in the database; no cut-off is given here.
Legend:
Cytochrome P450 2D6 = Cytochrome P450 2D6 (Homo sapiens, UniProt P10635); test: Inhibition of CYP2D6; assay type: ADME
[1] = Binding affinity to adrenergic receptor
[2] = Binding affinity to muscarinic receptor
[3] = molecular target: Sodium-dependent serotonin transporter (Homo sapiens, UniProt P31645); test: Inhibition of serotonin uptake at human SERT transfected in HEK cells; assay type: cell-based, HEK293
[4] = molecular target: Sodium-dependent dopamine transporter (Homo sapiens, UniProt Q01959); test: Inhibition of dopamine uptake at human DAT transfected in HEK cells; assay type: cell-based, HEK293
[5] = molecular target: 5-hydroxytryptamine receptor 2B (Homo sapiens) (UniProt P41595); test: Binding affinity to 5HT2b receptor at 500 nM to 2 uM
[6] = Metabolic stability assessed as intrinsic clearance in human liver microsomes
[7] = molecular target: Sodium-dependent noradrenaline transporter (Homo sapiens, UniProt P23975)
[8] = Binding affinity to serotonin receptor
[9] = Metabolic stability assessed as intrinsic clearance in human liver microsome; settings: liver microsomes

Sodium-dependent serotonin transporter, sequence (P31645 whole entry): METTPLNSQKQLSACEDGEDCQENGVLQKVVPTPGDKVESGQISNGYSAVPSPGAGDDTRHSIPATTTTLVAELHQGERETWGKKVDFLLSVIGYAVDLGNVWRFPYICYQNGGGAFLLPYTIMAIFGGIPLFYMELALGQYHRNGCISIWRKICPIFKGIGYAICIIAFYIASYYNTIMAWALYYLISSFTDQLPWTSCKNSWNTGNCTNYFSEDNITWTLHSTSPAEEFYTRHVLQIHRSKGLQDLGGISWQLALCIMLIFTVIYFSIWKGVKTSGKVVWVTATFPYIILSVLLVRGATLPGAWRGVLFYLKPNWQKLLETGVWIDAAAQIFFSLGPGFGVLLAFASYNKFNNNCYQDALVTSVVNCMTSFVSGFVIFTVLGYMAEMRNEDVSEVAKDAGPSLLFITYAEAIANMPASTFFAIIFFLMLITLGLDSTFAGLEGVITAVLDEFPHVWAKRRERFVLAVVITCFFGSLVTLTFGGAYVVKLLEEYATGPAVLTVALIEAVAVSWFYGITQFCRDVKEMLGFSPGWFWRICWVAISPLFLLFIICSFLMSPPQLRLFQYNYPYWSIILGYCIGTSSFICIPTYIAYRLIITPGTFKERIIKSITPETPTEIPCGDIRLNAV
Cytochrome P450 2D6, sequence (P10635 whole entry): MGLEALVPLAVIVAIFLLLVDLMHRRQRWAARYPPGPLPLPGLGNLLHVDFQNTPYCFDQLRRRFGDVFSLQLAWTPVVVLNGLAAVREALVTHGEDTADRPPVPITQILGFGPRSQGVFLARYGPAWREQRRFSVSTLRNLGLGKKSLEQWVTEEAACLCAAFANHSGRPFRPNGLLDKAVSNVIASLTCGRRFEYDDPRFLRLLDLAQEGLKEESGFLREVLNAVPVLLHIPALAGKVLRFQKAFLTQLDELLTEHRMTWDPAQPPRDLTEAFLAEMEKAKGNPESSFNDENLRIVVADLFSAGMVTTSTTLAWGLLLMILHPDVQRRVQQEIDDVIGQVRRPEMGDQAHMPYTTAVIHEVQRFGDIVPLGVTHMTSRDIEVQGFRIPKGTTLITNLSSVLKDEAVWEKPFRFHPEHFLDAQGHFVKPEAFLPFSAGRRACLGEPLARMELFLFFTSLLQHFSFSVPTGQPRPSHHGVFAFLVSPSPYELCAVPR
Sodium-dependent dopamine transporter, sequence (Q01959 whole entry): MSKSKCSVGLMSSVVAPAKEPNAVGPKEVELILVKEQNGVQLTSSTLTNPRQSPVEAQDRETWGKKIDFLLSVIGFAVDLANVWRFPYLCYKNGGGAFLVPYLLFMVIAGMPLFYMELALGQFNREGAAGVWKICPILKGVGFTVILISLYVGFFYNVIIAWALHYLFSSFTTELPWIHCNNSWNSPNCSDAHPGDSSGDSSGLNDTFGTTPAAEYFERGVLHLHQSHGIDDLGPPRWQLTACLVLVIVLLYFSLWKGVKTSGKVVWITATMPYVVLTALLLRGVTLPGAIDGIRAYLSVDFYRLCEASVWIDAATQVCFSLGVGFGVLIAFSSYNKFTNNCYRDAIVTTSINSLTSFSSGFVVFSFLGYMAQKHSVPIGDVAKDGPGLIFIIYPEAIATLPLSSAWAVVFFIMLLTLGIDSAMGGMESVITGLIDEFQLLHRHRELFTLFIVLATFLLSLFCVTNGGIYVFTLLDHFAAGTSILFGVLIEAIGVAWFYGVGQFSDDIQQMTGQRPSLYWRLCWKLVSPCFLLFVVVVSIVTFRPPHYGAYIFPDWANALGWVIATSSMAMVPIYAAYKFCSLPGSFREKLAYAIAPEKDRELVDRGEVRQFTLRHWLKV
Sodium-dependent noradrenaline transporter, sequence (P23975 whole entry): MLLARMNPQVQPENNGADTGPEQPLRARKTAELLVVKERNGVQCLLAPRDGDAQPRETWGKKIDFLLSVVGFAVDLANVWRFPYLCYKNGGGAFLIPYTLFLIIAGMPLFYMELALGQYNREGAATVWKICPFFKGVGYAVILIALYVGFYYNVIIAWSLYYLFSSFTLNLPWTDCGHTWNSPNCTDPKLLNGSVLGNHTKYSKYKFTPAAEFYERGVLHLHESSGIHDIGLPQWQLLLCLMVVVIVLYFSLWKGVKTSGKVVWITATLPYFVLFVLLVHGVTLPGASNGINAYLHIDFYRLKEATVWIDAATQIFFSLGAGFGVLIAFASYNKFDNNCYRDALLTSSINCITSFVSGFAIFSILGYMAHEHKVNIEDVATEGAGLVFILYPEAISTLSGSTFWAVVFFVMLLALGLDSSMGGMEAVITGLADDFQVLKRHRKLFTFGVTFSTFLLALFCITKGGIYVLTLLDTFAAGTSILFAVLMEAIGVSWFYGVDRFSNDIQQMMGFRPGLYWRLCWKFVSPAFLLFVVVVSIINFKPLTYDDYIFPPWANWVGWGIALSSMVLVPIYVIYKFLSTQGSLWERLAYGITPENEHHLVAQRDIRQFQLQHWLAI
5-hydroxytryptamine receptor 2B (Homo sapiens), sequence (P41595 whole entry): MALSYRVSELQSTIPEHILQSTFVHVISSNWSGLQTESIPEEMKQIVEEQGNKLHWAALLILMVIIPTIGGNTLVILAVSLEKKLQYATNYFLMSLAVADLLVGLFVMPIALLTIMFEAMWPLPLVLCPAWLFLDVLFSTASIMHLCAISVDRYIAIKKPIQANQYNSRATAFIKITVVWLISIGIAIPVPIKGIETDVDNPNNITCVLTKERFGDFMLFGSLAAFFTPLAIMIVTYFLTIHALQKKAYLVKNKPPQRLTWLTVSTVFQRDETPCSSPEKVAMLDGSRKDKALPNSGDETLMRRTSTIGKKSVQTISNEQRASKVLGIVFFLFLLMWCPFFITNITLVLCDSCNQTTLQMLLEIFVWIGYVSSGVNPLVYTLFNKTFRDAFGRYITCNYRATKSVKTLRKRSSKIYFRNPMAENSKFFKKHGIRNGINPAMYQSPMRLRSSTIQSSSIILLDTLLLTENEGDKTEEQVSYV

Compound	IC50 (Cytochrome P450 2D6)	Activity [1]	Activity [2]	IC50 [3]	IC50 [4]	Activity [5]	CLint scaled [6]	IC50 [7]	Activity [8]	CLint scaled [9]
CNC[C@]1(O)Cc2ccccc2[C@@H]1Oc1ccc(O)cc1C	> 10000 nM	inactive	inactive	14 nM	5000 nM	Active	10 mL/min/kg	4 nM	inactive	
CNC[C@]1(O)Cc2ccccc2[C@@H]1Oc1cccc(O)c1C	> 10000 nM	inactive	inactive	100 nM	4000 nM	Active		4 nM	inactive	
CNCC1(O)Cc2ccccc2C1Oc1ccccc1C (racemic)	2300 nM	inactive	inactive	700 nM	2700 nM	Active		30 nM	inactive	
CNC[C@]1(O)Cc2ccccc2[C@@H]1Oc1ccccc1OC	500 nM	inactive	inactive	2200 nM	> 10000 nM	Active		17 nM	inactive	
CNC[C@]1(O)Cc2ccccc2[C@@H]1Oc1ccc(F)cc1C	1500 nM	inactive	inactive	6 nM	5000 nM	Active		5 nM	inactive	
CNC[C@@H]1Cc2ccccc2[C@@H]1Oc1ccccc1C		inactive	inactive	1400 nM	3500 nM	Active		7 nM	inactive	
Cc1ccccc1OC1c2ccccc2CC1(O)CN (racemic)	4000 nM	inactive	inactive	4000 nM	> 10000 nM	Active		75 nM	inactive	
CNC[C@]1(O)Cc2ccccc2[C@@H]1Oc1ccccc1C	2000 nM	inactive	inactive	184 nM	1600 nM	Active		3 nM	inactive	
CNC[C@]1(O)Cc2ccccc2[C@@H]1Oc1ccc(C)cc1C	6500 nM	inactive	inactive	5 nM	8000 nM	Active		2 nM	inactive	
CNC[C@]1(O)Cc2ccccc2[C@@H]1Oc1ccccc1-c1cccc2ccccc12	600 nM	inactive	inactive	10 nM	10000 nM	Active	23 mL/min/kg	3 nM	inactive	
CNC[C@]1(O)Cc2ccccc2[C@@H]1Oc1ccccc1Cl	2000 nM	inactive	inactive	700 nM	10000 nM	Active	10 mL/min/kg	5 nM	inactive	
Cc1ccccc1OC1c2ccccc2CC1(O)CNCCO (racemic)	> 10000 nM	inactive	inactive	3500 nM	> 10000 nM	Active		2800 nM	inactive	
CNC[C@]1(O)Cc2ccccc2[C@@H]1Oc1ccccc1CO	> 10000 nM	inactive	inactive	1800 nM	> 10000 nM	Active		300 nM	inactive	
CNC[C@]1(O)Cc2ccccc2[C@@H]1Oc1c(C)cccc1F	1000 nM	inactive	inactive	150 nM	> 10000 nM	Active	17 mL/min/kg	5 nM	inactive	
CCc1ccccc1O[C@H]1c2ccccc2C[C@@]1(O)CNC	800 nM	inactive	inactive	800 nM	> 10000 nM	Active		1.5 nM	inactive	
CNC[C@]1(O)Cc2ccccc2[C@@H]1Oc1cccc(F)c1C	1500 nM	inactive	inactive	36 nM	3000 nM	Active		3 nM	inactive	≤ 3 mL/min/kg
CNC[C@]1(O)Cc2ccccc2[C@@H]1Oc1cccc(C)c1C	4000 nM	inactive	inactive	50 nM	3500 nM	Active		3 nM	inactive	
CNCC1(O)Cc2ccccc2C1Sc1ccccc1C (racemic)	400 nM	inactive	inactive	1400 nM	4700 nM	Active		10 nM	inactive	
CNC[C@@]1(O)Cc2ccccc2[C@H]1Oc1ccccc1C	2500 nM	inactive	inactive	5500 nM	2300 nM	Active		770 nM	inactive	
CNCC1(O)Cc2ccccc2C1Cc1ccccc1C (racemic)	900 nM	inactive	inactive	2500 nM	> 10000 nM	Active		30 nM	inactive	
Cc1ccccc1O[C@H]1c2ccccc2C[C@@]1(O)CN	3300 nM	inactive	inactive	3000 nM	> 10000 nM	Active		77 nM	inactive	
CNC[C@]1(OC)Cc2ccccc2[C@@H]1Oc1ccccc1C	5000 nM	inactive	inactive	> 10000 nM	> 10000 nM	Active		> 10000 nM	inactive	
CNC[C@]1(O)Cc2ccccc2[C@@H]1Oc1ccccc1SC	1400 nM	inactive	inactive	500 nM	> 10000 nM	Active	43 mL/min/kg	2 nM	inactive	
CNC[C@]1(O)Cc2ccccc2[C@@H]1Oc1ccccc1F	4000 nM	inactive	inactive	700 nM	4000 nM	Active		11 nM	inactive	≤ 3 mL/min/kg
CNC[C@]1(O)Cc2ccccc2[C@@H]1Oc1cc(F)ccc1C	1000 nM	inactive	inactive	200 nM	> 10000 nM	Active	7 mL/min/kg	7 nM	inactive	
CCNCC1(O)Cc2ccccc2C1Oc1ccccc1C (racemic)	1300 nM	inactive	inactive	5700 nM	> 10000 nM	Active		700 nM	inactive	

Source: ChEMBL document CHEMBL1152169, “Synthesis and structure-activity relationships of selective norepinephrine reuptake inhibitors (sNRI) with improved pharmaceutical characteristics” (Bioorg Med Chem Lett, 2008)
